From patent US8471005B2 (Cephalon, Inc., priority 2008, dated 2013) come the findings set out here.

Assay [1] addresses T1, JAK2 (Homo sapiens, UniProt O60674).
T1 construct: host or cells: baculovirus expression system
Briefly: Recombinant Human JAK2 Kinase Assay (TRF). The conditions noted are these: JAK2 kinase inhibition, 0.2 μM ATP; read-out: JAK2 Potency. It counts as biochemical. The essentials:
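Kinase activity of baculovirus-expressed JAK2 is followed on a surface-immobilised biotinylated peptide, with the reaction run for 20 min at room temperature in buffer containing 0.2 μM ATP and manganese. Phosphorylation is read with Eu-N1 PY100 antibody.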

The target in assay [2] is T2, ALK (Homo sapiens, UniProt Q9UM73).
T2 construct: host or cells: baculovirus expression system
Briefly: ALK Kinase Assay (ELISA/TRF, PLC-γ substrate). It counts as biochemical. The conditions noted are these: ALK kinase inhibition, 1 μM ATP; read-out: ALK Potency. In outline:
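Time-resolved fluorescence ELISA using Eu-N1 PT66 antibody to detect phosphorylated PLC-γ (coated at 10 μg/mL). Enzyme at 30 ng/ml ALK; 15 min incubation, 37° C.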

The structures appear in SMILES notation.

T1 sequence (O60674 whole entry): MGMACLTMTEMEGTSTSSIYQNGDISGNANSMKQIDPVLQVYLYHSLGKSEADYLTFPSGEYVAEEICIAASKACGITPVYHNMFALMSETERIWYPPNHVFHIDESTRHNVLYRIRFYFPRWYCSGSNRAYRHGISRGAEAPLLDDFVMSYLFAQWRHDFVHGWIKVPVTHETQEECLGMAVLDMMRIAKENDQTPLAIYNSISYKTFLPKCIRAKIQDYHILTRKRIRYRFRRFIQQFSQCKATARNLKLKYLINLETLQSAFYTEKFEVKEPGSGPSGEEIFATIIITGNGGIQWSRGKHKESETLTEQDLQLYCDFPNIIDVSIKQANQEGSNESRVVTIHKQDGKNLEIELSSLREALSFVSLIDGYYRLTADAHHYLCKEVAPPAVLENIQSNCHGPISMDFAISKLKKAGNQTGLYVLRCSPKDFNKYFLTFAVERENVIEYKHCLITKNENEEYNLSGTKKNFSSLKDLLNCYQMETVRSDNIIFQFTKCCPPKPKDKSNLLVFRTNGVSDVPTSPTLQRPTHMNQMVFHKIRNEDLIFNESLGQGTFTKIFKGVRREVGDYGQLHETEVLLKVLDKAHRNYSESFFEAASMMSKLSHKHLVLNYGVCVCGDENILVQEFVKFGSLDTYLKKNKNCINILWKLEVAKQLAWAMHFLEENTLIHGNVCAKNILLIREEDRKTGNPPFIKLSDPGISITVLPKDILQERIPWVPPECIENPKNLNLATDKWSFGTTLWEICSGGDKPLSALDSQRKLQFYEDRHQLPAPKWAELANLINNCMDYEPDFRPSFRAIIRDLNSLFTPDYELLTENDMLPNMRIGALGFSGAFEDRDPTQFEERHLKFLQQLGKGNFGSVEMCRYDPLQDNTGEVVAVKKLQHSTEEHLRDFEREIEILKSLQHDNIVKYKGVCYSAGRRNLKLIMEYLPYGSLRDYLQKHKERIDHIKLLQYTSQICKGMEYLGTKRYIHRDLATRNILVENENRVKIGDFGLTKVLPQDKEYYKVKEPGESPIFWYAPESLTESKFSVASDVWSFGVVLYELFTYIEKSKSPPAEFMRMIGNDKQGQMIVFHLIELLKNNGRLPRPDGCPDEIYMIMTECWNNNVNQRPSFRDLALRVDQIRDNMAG
T2 sequence (Q9UM73 19-1620): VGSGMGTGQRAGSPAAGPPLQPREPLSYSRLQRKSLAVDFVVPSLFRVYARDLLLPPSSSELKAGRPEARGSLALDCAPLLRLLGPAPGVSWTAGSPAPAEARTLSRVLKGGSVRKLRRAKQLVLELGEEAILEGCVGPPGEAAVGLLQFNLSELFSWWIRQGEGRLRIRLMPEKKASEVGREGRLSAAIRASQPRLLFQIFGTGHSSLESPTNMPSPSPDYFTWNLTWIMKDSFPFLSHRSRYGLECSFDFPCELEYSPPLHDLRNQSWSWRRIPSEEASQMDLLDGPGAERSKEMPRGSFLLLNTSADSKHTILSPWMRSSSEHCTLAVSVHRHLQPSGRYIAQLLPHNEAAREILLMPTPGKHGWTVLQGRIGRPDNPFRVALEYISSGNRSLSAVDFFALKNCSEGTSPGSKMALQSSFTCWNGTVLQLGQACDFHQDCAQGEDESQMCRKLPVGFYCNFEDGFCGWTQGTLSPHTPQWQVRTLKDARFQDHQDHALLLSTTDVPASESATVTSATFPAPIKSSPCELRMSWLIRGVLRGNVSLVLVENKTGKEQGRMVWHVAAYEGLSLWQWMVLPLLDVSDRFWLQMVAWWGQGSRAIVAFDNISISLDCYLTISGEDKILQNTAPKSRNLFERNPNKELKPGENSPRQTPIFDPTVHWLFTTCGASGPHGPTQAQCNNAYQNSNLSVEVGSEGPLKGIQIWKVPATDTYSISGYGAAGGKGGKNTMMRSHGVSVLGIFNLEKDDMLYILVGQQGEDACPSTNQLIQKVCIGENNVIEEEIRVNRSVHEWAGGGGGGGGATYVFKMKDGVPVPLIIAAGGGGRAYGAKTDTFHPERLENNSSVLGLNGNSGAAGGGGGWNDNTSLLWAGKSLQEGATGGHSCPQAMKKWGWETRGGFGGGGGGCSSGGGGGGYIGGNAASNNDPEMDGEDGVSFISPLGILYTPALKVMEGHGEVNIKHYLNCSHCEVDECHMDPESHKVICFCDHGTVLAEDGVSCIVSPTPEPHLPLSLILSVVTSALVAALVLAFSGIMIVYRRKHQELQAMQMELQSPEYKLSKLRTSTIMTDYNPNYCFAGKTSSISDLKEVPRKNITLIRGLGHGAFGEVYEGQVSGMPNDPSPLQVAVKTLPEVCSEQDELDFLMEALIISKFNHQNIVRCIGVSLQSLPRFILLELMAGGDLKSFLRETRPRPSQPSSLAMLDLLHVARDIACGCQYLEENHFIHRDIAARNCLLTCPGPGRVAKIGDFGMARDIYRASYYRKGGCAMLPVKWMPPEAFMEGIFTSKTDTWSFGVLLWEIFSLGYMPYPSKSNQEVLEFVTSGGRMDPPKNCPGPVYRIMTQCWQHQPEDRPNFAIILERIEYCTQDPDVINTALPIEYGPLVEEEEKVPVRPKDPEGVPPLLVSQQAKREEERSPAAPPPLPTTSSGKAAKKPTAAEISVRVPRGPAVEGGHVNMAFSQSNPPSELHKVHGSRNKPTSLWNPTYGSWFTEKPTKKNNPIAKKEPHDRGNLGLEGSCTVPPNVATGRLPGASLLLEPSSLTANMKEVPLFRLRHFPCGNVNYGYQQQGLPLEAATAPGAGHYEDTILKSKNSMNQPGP

`COc1cc(N2CCCN(C3CCN(C)CC3)CC2)ccc1Nc1ncc2ccc(-c3ccccc3N(C)S(C)(=O)=O)n2n1` [Example 790, N-[2-(2-{2-Methoxy-4-[4-(1-methyl-piperidin-4-yl)-[1,4]diazepan-1-yl]-phenylamino}-pyrrolo[2,1-f][1,2,4]triazin-7-yl)-phenyl]-N-methyl-methanesulfonamide]: the IC50 in assay [1] is 100 to 1000 nM; in assay [2], less than 100 nM.

Take `COc1cc(C2CCN(CCF)CC2)ccc1Nc1ncc2ccc(-c3ccccc3OC)n2n1` [Example 791, {4-[1-(2-Fluoro-ethyl)-piperidin-4-yl]-2-methoxy-phenyl}-[7-(2-methoxy-phenyl)-pyrrolo[2,1-f][1,2,4]triazin-2-yl]-amine]: the IC50 is 100 to 1000 nM in assay [1] and less than 100 nM in assay [2].

For the molecule `COc1cc(C2CCN(CCF)CC2)ccc1Nc1ncc2ccc(-c3ccccc3N(C)S(C)(=O)=O)n2n1` [Example 792, N-[2-(2-{4-[1-(2-Fluoro-ethyl)-piperidin-4-yl]-2-methoxy-phenylamino}-pyrrolo[2,1-f][1,2,4]triazin-7-yl)-phenyl]-N-methyl-methanesulfonamide], the IC50 was 100 to 1000 nM in assay [1] and less than 100 nM in assay [2].

`COc1cc(C2CCN(CCO)CC2)ccc1Nc1ncc2ccc(-c3ccccc3N(C)S(C)(=O)=O)n2n1` [Example 793, N-[2-(2-{4-[1-(2-Hydroxy-ethyl)-piperidin-4-yl]-2-methoxy-henylamino}-pyrrolo[2,1-f][1,2,4]triazin-7-yl)-phenyl]-N-methyl-methanesulfonamide]: the IC50 in assay [1] was 100 to 1000 nM; in assay [2], less than 100 nM.

As to `COc1cc(C2CCN(C[C@@H](C)O)CC2)ccc1Nc1ncc2ccc(-c3cc(Cl)ccc3OC)n2n1` [Example 794, (R)-1-(4-{4-[7-(5-Chloro-2-methoxy-phenyl)-pyrrolo[2,1-f][1,2,4]triazin-2-ylamino]-3-methoxy-phenyl}-piperidin-1-yl)-propan-2-ol], the IC50 was 100 to 1000 nM in assay [1] and less than 100 nM in assay [2].

Turning to `COc1cc(N2CCC(N(C)CCO)CC2)ccc1Nc1ncc2ccc(-c3ccccc3OC)n2n1` [Example 796, 2-[(1-{3-Methoxy-4-[7-(2-methoxy-phenyl)-pyrrolo[2,1-f][1,2,4]triazin-2-ylamino]-phenyl}-piperidin-4-yl)-methyl-amino]-ethanol], the IC50 in assay [1] and in assay [2] was less than 100 nM throughout.

Turning to `COc1cc(N2CCC(NCCO)CC2)ccc1Nc1ncc2ccc(-c3ccccc3OC)n2n1` [Example 797, 2-(1-{3-Methoxy-4-[7-(2-methoxy-phenyl)-pyrrolo[2,1-f][1,2,4]triazin-2-ylamino]-phenyl}-piperidin-4-ylamino)-ethanol], the IC50 in assay [1] and in assay [2] was less than 100 nM each time.

Consider `COc1cc(C2CCN(C[C@H](O)C(F)(F)F)CC2)ccc1Nc1ncc2ccc(-c3ccccc3OC)n2n1` [Example 799, (S)-1,1,1-Trifluoro-3-(4-{3-methoxy-4-[7-(2-methoxy-phenyl)-pyrrolo[2,1-f][1,2,4]triazin-2-ylamino]-phenyl}-piperidin-1-yl)-propan-2-ol], for which the IC50 in assay [1] was 100 to 1000 nM; in assay [2], less than 100 nM.

As for `COc1cc(N2CCCN(C3CCN(CCO)CC3)CC2)ccc1Nc1ncc2ccc(-c3ccccc3OC)n2n1` [Example 800, 2-[4-(4-{3-Methoxy-4-[7-(2-methoxy-phenyl)-pyrrolo[2,1-f][1,2,4]triazin-2-ylamino]-phenyl}-[1,4]diazepan-1-yl)-piperidin-1-yl]-ethanol], the results for the IC50 in assay [1] and in assay [2] were 100 to 1000 nM and less than 100 nM, respectively.

With `COc1cc(N2CCC(N3CCCN(CCO)CC3)CC2)ccc1Nc1ncc2ccc(-c3ccccc3OC)n2n1` [Example 801, 2-[4-(1-{3-Methoxy-4-[7-(2-methoxy-phenyl)-pyrrolo[2,1-f][1,2,4]triazin-2-ylamino]-phenyl}-piperidin-4-yl)-[1,4]diazepan-1-yl]-ethanol], the IC50 in assay [1] and in assay [2] was less than 100 nM throughout.

In the case of `COc1cc(N2CCC(N3CCCN(CCO)CC3)CC2)ccc1Nc1ncc2ccc(-c3ccccc3N(C)S(C)(=O)=O)n2n1` [Example 803, N-{2-[2-(4-{4-[4-(2-Hydroxy-ethyl)-[1,4]diazepan-1-yl]-piperidin-1-yl}-2-methoxy-phenylamino)-pyrrolo[2,1-f][1,2,4]triazin-7-yl]-phenyl}-N-methyl-methanesulfonamide], the IC50 is 100 to 1000 nM in assay [1] and less than 100 nM in assay [2].

For `COc1cc(C2CCN(C[C@H](O)C(F)(F)F)CC2)ccc1Nc1ncc2ccc(-c3ccccc3N(C)S(C)(=O)=O)n2n1` [Example 804, N-[2-(2-{2-Methoxy-4-[1-((S)-3,3,3-trifluoro-2-hydroxy-propyl)-piperidin-4-yl]-phenylamino}-pyrrolo[2,1-f][1,2,4]triazin-7-yl)-phenyl]-N-methyl-methanesulfonamide], the IC50 in assay [1] is 100 to 1000 nM; in assay [2] it was less than 100 nM.

As for `COc1cc(C2CCCN(C)C2)ccc1Nc1ncc2ccc(-c3ccccc3OC)n2n1` (stereo not drawn) [Example 805, [2-Methoxy-4-(1-methyl-piperidin-3-yl)-phenyl]-[7-(2-methoxy-phenyl)-pyrrolo[2,1-f][1,2,4]triazin-2-yl]-amine], the figures for the IC50 in assay [1] and in assay [2] were 100 to 1000 nM and less than 100 nM, respectively.

For `COc1cc(C2CCCN(C)C2)ccc1Nc1ncc2ccc(-c3ccccc3N(C)S(C)(=O)=O)n2n1` (stereo not drawn) [Example 806, N-(2-{2-[2-Methoxy-4-(1-methyl-piperidin-3-yl)-phenylamino]-pyrrolo[2,1-f][1,2,4]triazin-7-yl}-phenyl)-N-methyl-methanesulfonamide], the IC50 in assay [1] is 100 to 1000 nM; in assay [2], less than 100 nM.

As to `COc1cc(-c2cccnc2)ccc1Nc1ncc2ccc(-c3ccccc3OC)n2n1` [Example 807, [7-(2-Methoxy-phenyl)-pyrrolo[2,1-f][1,2,4]triazin-2-yl]-(2-methoxy-4-pyridin-3-yl-phenyl)-amine], the IC50 in assay [1] was more than 10000 nM; in assay [2], 1000 to 10000 nM.

On to `COc1cc(-c2cccnc2)ccc1Nc1ncc2ccc(-c3ccccc3N(C)S(C)(=O)=O)n2n1` [Example 808, N-{2-[2-(2-Methoxy-4-pyridin-3-yl-phenylamino)-pyrrolo[2,1-f][1,2,4]triazin-7-yl]-phenyl}-N-methyl-methanesulfonamide], for which the IC50 in assay [1] is more than 10000 nM; in assay [2] it was 100 to 1000 nM.

Regarding `COc1cc2c(cc1Nc1ncc3ccc(-c4ccccc4N(C)S(C)(=O)=O)n3n1)CN(C)C2` [Example 809, N-{2-[2-(6-Methoxy-2-methyl-2,3-dihydro-1H-isoindol-5-ylamino)-pyrrolo[2,1-f][1,2,4]triazin-7-yl]-phenyl}-N-methyl-methanesulfonamide], the IC50 in assay [1] is 100 to 1000 nM; in assay [2], less than 100 nM.

For `COc1cc(C2CCN(CC(=O)N(C)C)CC2)ccc1Nc1ncc2ccc(-c3ccccc3N(C)S(C)(=O)=O)n2n1` [Example 810, 2-[4-(4-{7-[2-(Methanesulfonyl-methyl-amino)-phenyl]-pyrrolo[2,1-f][1,2,4]triazin-2-ylamino}-3-methoxy-phenyl)-piperidin-1-yl]-N,N-dimethyl-acetamide], the IC50 in assay [1] was 100 to 1000 nM; in assay [2], less than 100 nM.
